Each compound was assayed against T1, Human Factor XIIa (Homo sapiens, UniProt P00748) (assay: Determination of FXIIa inhibition (fluorogenic substrate H-DPro-Phe-Arg-AFC, IC50 assay)). Conditions: substrate at Km concentration, 25° C.; category scale; read-out: Human FXII IC50 (nm).
T1 construct: Proteolytic cleavage of FXII to heavy and light chains of FXIIa dramatically increases catalytic activity; purchased Enzyme Research Laboratories
T1 sequence (P00748 373-615 limits assumed): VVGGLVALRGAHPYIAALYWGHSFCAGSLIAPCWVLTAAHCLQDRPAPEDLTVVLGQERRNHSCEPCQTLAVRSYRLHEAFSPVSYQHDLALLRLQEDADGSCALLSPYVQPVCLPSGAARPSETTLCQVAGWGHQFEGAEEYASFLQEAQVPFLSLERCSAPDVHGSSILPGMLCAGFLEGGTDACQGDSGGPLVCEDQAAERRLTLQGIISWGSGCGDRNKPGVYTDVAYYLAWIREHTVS
T1 sequence (P00748 20-372 partner limits assumed): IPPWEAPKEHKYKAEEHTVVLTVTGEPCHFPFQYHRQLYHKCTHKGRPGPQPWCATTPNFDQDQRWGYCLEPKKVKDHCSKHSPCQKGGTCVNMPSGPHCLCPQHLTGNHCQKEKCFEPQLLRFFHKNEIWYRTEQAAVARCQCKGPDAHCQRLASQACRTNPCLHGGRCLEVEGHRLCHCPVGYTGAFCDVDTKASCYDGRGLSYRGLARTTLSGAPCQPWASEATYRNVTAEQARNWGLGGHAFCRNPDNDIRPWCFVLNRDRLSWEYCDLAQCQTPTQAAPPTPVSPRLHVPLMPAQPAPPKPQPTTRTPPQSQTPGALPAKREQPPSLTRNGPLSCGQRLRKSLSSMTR
Assay type: biochemical
Summary of the method: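 At substrate Km and 25° C., the rate of AFC release from H-DPro-Phe-Arg-AFC by human Factor XIIa was followed for 5 min across compound concentrations. Inhibition was derived as percent of uninhibited rate, giving IC50.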

SMILES | IC50 [nM]
Cn1ccc(OCC23CN(c4ncc(-c5ccccc5)cn4)C(CNc4cccc5c(N)nccc45)(C2)C3)cc1=O [Example 12060, 4-((1-(((1-Aminoisoquinolin-5-yl)amino)methyl)-2-(5-phenylpyrimidin-2-yl)-2-azabicyclo[2.1.1]hexan-4-yl)methoxy)-1-methylpyridin-2(1H)-one] | 1 to 10
COc1ccc(NC(=O)N2CC3(COc4ccn(C)c(=O)c4)CC2(CNc2cccc4c(N)nccc24)C3)cc1 [Example 12061, 1-(((1-Aminoisoquinolin-5-yl)amino)methyl)-N-(4-methoxyphenyl)-4-(((1-methyl-2-oxo-1,2-dihydropyridin-4-yl)oxy)methyl)-2-azabicyclo[2.1.1]hexane-2-carboxamide] | 1 to 10
COc1ccc(CNC(=O)N2CC3(COc4ccn(C)c(=O)c4)CC2(CNc2cccc4c(N)nccc24)C3)cc1 [Example 12062, 1-(((1-aminoisoquinolin-5-yl)amino)methyl)-N-(4-methoxybenzyl)-4-(((1-methyl-2-oxo-1,2-dihydropyridin-4-yl)oxy)methyl)-2-azabicyclo[2.1.1]hexane-2-carboxamide] | 10 to 100
Cn1ccc(OCC23CN(c4cccnc4)C(CNc4cccc5c(N)nccc45)(C2)C3)cc1=O [Example 12064, 4-((1-(((1-aminoisoquinolin-5-yl)amino)methyl)-2-(pyridin-3-yl)-2-azabicyclo[2.1.1]hexan-4-yl)methoxy)-1-methylpyridin-2(1H)-one] | 10 to 100
Cn1ccc(OCC23CN(c4ccncc4)C(CNc4cccc5c(N)nccc45)(C2)C3)cc1=O [Example 12065, 4-((1-(((1-aminoisoquinolin-5-yl)amino)methyl)-2-(pyridin-4-yl)-2-azabicyclo[2.1.1]hexan-4-yl)methoxy)-1-methylpyridin-2(1H)-one] | 1 to 10
COc1ccccc1CNC(=O)N1CC2(COc3ccn(C)c(=O)c3)CC1(CNc1cccc3c(N)nccc13)C2 [Example 12067, 1-(((1-aminoisoquinolin-5-yl)amino)methyl)-N-(2-methoxybenzyl)-4-(((1-methyl-2-oxo-1,2-dihydropyridin-4-yl)oxy)methyl)-2-azabicyclo[2.1.1]hexane-2-carboxamide] | 10 to 100
Cn1ccc(OCC23CN(C(=O)Nc4ccccc4F)C(CNc4cccc5c(N)nccc45)(C2)C3)cc1=O [Example 12068, 1-(((1-aminoisoquinolin-5-yl)amino)methyl)-N-(2-fluorophenyl)-4-(((1-methyl-2-oxo-1,2-dihydropyridin-4-yl)oxy)methyl)-2-azabicyclo[2.1.1]hexane-2-carboxamide] | 1 to 10
Cn1ccc(OCC23CN(C(=O)NCc4cccc(C(F)(F)F)c4)C(CNc4cccc5c(N)nccc45)(C2)C3)cc1=O [Example 12069, 1-(((1-aminoisoquinolin-5-yl)amino)methyl)-4-(((1-methyl-2-oxo-1,2-dihydropyridin-4-yl)oxy)methyl)-N-(3-(trifluoromethyl)benzyl)-2-azabicyclo[2.1.1]hexane-2-carboxamide] | 10 to 100
Cn1ccc(OCC23CN(C(=O)NCc4ccc5occc5c4)C(CNc4cccc5c(N)nccc45)(C2)C3)cc1=O [Example 12070, 1-(((1-aminoisoquinolin-5-yl)amino)methyl)-N-(benzofuran-5-ylmethyl)-4-(((1-methyl-2-oxo-1,2-dihydropyridin-4-yl)oxy)methyl)-2-azabicyclo[2.1.1]hexane-2-carboxamide] | 10 to 100
COc1ccc(C(=O)N2CC3(COc4ccn(C)c(=O)c4)CC2(CNc2cccc4c(N)nccc24)C3)cc1 [Example 12071, 4-((1-(((1-aminoisoquinolin-5-yl)amino)methyl)-2-(4-methoxybenzoyl)-2-azabicyclo[2.1.1]hexan-4-yl)methoxy)-1-methylpyridin-2(1H)-one] | 10 to 100
Cn1ccc(OCC23CN(C(=O)NCc4ccccc4)C(CNc4c(F)ccc5c(N)nccc45)(C2)C3)cc1=O [Example 12072, 1-(((1-amino-6-fluoroisoquinolin-5-yl)amino)methyl)-N-benzyl-4-(((1-methyl-2-oxo-1,2-dihydropyridin-4-yl)oxy)methyl)-2-azabicyclo[2.1.1]hexane-2-carboxamide] | 300 to 1000
CC(=O)N1CC2(CNc3cccc4c(N)nccc34)CC1(COc1ccn(C)c(=O)c1)C2 [Example 13003, 4-((2-acetyl-4-(((1-aminoisoquinolin-5-yl)amino)methyl)-2-azabicyclo[2.1.1]hexan-1-yl)methoxy)-1-methylpyridin-2(1H)-one] | 100 to 300
Cn1ccc(OCC23CC(CNc4cccc5c(N)nccc45)(CN2C(=O)Oc2ccccc2Cl)C3)cc1=O [Example 13004, 2-chlorophenyl 4-(((1-aminoisoquinolin-5-yl)amino)methyl)-1-(((1-methyl-2-oxo-1,2-dihydropyridin-4-yl)oxy)methyl)-2-azabicyclo[2.1.1]hexane-2-carboxylate] | 100 to 300
Cn1ccc(OCC23CC(CNc4cccc5c(N)nccc45)(CN2C(=O)OC(C)(C)C)C3)cc1=O [Example 13005, tert-butyl 4-(((1-aminoisoquinolin-5-yl)amino)methyl)-1-(((1-methyl-2-oxo-1,2-dihydropyridin-4-yl)oxy)methyl)-2-azabicyclo[2.1.1]hexane-2-carboxylate] | 100 to 300
Cn1ccc(OCC23CC(CNc4cccc5c(N)nccc45)(CN2C(=O)Oc2ccccc2)C3)cc1=O [Example 13006, phenyl 4-(((1-aminoisoquinolin-5-yl)amino)methyl)-1-(((1-methyl-2-oxo-1,2-dihydropyridin-4-yl)oxy)methyl)-2-azabicyclo[2.1.1]hexane-2-carboxylate] | 10 to 100
Cn1ccc(OCC23CC(CNc4cccc5c(N)nccc45)(CN2)C3)cc1=O [Example 13007, 4-((4-(((1-aminoisoquinolin-5-yl)amino)methyl)-2-azabicyclo[2.1.1]hexan-1-yl)methoxy)-1-methylpyridin-2(1H)-one] | 100 to 300
Cn1ccc(OCC23CC(CNc4cccc5c(N)nccc45)(CN2C(=O)CCc2ccccc2)C3)cc1=O [Example 13008, 4-((4-(((1-aminoisoquinolin-5-yl)amino)methyl)-2-(3-phenylpropanoyl)-2-azabicyclo[2.1.1]hexan-1-yl)methoxy)-1-methylpyridin-2(1H)-one] | 300 to 1000
Cn1ccc(OCC23CC(CNc4cccc5c(N)nccc45)(CN2C(=O)OCc2cccnc2)C3)cc1=O [Example 13009, Pyridin-3-ylmethyl4-(((1-aminoisoquinolin-5-yl)amino)methyl)-1-(((1-methyl-2-oxo-1,2-dihydropyridin-4-yl)oxy)methyl)-2-azabicyclo[2.1.1]hexane-2-carboxylate] | 10 to 100
Cn1ccc(OCC23CC(CNc4cccc5c(N)nccc45)(CN2C(=O)CCc2cccnc2)C3)cc1=O [Example 13010, 4-((4-(((1-aminoisoquinolin-5-yl)amino)methyl)-2-(3-(pyridin-3-yl)propanoyl)-2-azabicyclo[2.1.1]hexan-1-yl)methoxy)-1-methylpyridin-2(1H)-one] | 100 to 300
CN(Cc1ccccc1)C(=O)N1CC2(CNc3cccc4c(N)nccc34)CC1(COc1ccn(C)c(=O)c1)C2 [Example 13011, 4-(((1-aminoisoquinolin-5-yl)amino)methyl)-N-benzyl-N-methyl-1-(((1-methyl-2-oxo-1,2-dihydropyridin-4-yl)oxy)methyl)-2-azabicyclo[2.1.1]hexane-2-carboxamide] | 300 to 1000
Cn1ccc(OCC23CC(CNc4cccc5c(N)nccc45)(CN2C(=O)NCc2ccccc2)C3)cc1=O [Example 13012, 4-(((1-aminoisoquinolin-5-yl)amino)methyl)-N-benzyl-1-(((1-methyl-2-oxo-1,2-dihydropyridin-4-yl)oxy)methyl)-2-azabicyclo[2.1.1]hexane-2-carboxamide] | 10 to 100
Cn1ccc(OCC23CC(CNc4cccc5c(N)nccc45)(CN2C(=O)OCc2ccccn2)C3)cc1=O [Example 13013, pyridin-2-ylmethyl 4-(((1-aminoisoquinolin-5-yl)amino)methyl)-1-(((1-methyl-2-oxo-1,2-dihydropyridin-4-yl)oxy)methyl)-2-azabicyclo[2.1.1]hexane-2-carboxylate] | 100 to 300
Cn1ccc(OCC23CC(CNc4cccc5c(N)nccc45)(CN2S(=O)(=O)CCc2ccccc2)C3)cc1=O [Example 13014, 4-((4-(((1-aminoisoquinolin-5-yl)amino)methyl)-2-(phenethylsulfonyl)-2-azabicyclo[2.1.1]hexan-1-yl)methoxy)-1-methylpyridin-2(1H)-one] | 100 to 300
Cn1ccc(OCC23CC(CNc4cccc5c(N)nccc45)(CN2CCCc2ccccc2)C3)cc1=O [Example 13015, 4-((4-(((1-aminoisoquinolin-5-yl)amino)methyl)-2-(3-phenylpropyl)-2-azabicyclo[2.1.1]hexan-1-yl)methoxy)-1-methylpyridin-2(1H)-one] | 100 to 300

— patent US20240327412A1, “FACTOR XIIA INHIBITORS” (KALVISTA PHARMACEUTICALS LIMITED, priority 2021, published 2024)
